These results are taken from patent publication US5241047A, “Synthetic peptides and mixtures thereof for detecting HIV antibodies” (BioChem Pharma Inc., priority 1990, dated 1993).

Positions of bridges follow the written chain, without caps; N, C: chain ends. Residues, ends and D or L forms follow the SMILES beside them. Some results are limits rather than exact numbers.

Assay [1] deals with HIV-1 antibodies. In words: ELISA with peptide-coated wells, HIV-1 antibody positive samples (diluted plasma pool, seroconversion samples). The class given is binding, human. The method, then:
(§1) A preferred convenient and classical technique for the determination of antibodies against HIV-1 or HIV-2 using a peptide or a peptide mixture of the present invention is an enzyme-linked immunosorbent assay (ELISA). In this assay, for example, a peptide, peptide mixture or combination of the present invention is adsorbed onto, or covalently coupled to, the wells of a microtiter plate. The wells are then treated with the sera or analyte to be tested. After washing, antihuman IgG or antihuman IgM labeled with peroxidase is added to the wells. The determination of the peroxidase is performed with a corresponding substrate, e.g., with o-phenylene diamine. Without departing from the usefulness of the illustrative assay, the peroxidase can be exchanged by another label, e.g., by a radioactive, fluorescence chemiluminescence or infrared emitting label.
(§2) O.D. Values were obtained at 450 nm and the blank values measured with the sample dilution buffer were not subtracted.
(§3) Samples NEIA-2*2, BBI-1-162 to 168, 87B140, 87L139, 87V103 are all negative for HIV antibodies. Sample LSPQ-S9-1 is an early seroconverter (HIV-1). The series labeled CAP-113 to CAP-120 corresponds to a pool of seven HIV-1 positive plasma samples serially diluted with an HIV-negative plasma. CAP-113 is the pool diluted 50-fold with the HIV-negative plasma; CAP-114 is diluted 100-fold; CAP-115 is diluted 200-fold; etc. Similarly, the series labeled CAP-222 to CAP-230 corresponds to a pool of seven HIV-2 confirmed seropositive plasma samples. CAP-222 is diluted by 50 with an HIV-negative plasma; CAP-223 by 100; etc. Before the assay is done, each sample, including the CAP-series, is further diluted by 50 with the sample dilution buffer. In these tests, the cut-off for seropositivity is defined as the sum of the O.D. value for sample NEIA-2*2 plus 0.100.
Each well of the microtiter plate is saturated with 100 μl of a solution containing a peptide or mixture of peptides (5 μg/ml) and left overnight. The wells are emptied and washed twice with a washing buffer (Tris, 0.043M; NaCl, 0.5M; thimerosal, 0.01% w/v; Tween 20, 0.05% v/v; pH 7.4). The wells are then saturated with 0.35 ml of washing buffer for 1 hr. at 37° C. and washed once with the same buffer. Serum samples to be analyzed are diluted with specimen buffer (washing buffer plus casein, 0.05% w/v). The wells are rinsed with washing buffer prior to the addition of the diluted serum sample (0.1 ml). These are left to incubate for 1 hr. at room temperature. The wells are then emptied, washed twice rapidly and then once for two minutes with washing buffer. […] The wells are then emptied and washed twice rapidly with washing buffer and then five times in which the buffer was in contact with the well 2 minutes per washing. The substrate solution (3,3',5,5'-tetramethylbenzidine, 8 mg per ml of DMSO) is diluted with 100 volumes 0.1M citrate-acetate buffer, pH 5.6 containing 0.1% v/v of 30% H2 O2 and added to each well (0.1 ml per well). After 10 minutes the contents of each well is treated with 0.1 ml 2N H2 SO4 and the optical density read at 450 nm. All determinations are done in duplicate. […]

Another assay has as its system HIV antibodies. Kind of assay: ELISA with peptide-coated wells, samples negative for HIV antibodies or not described. It is filed as binding, human. The protocol: as §1, §2, §3
(§4) Each well of the microtiter plate is saturated with 100 μl of a solution containing a peptide or mixture of peptides (5 μg/ml) and left overnight. The wells are emptied and washed twice with a washing buffer (Tris, 0.043M; NaCl, 0.5M; thimerosal, 0.01% w/v; Tween 20, 0.05% v/v; pH 7.4). The wells are then saturated with 0.35 ml of washing buffer for 1 hr. at 37° C. and washed once with the same buffer. Serum samples to be analyzed are diluted with specimen buffer (washing buffer plus casein, 0.05% w/v). The wells are rinsed with washing buffer prior to the addition of the diluted serum sample (0.1 ml). These are left to incubate for 1 hr. at room temperature. The wells are then emptied, washed twice rapidly and then once for two minutes with washing buffer. […] The wells are then emptied and washed twice rapidly with washing buffer and then five times in which the buffer was in contact with the well 2 minutes per washing. The substrate solution (3,3',5,5'-tetramethylbenzidine, 8 mg per ml of DMSO) is diluted with 100 volumes 0.1M citrate-acetate buffer, pH 5.6 containing 0.1% v/v of 30% H2 O2 and added to each well (0.1 ml per well). After 10 minutes the contents of each well is treated with 0.1 ml 2N H2 SO4 and the optical density read at 450 nm. All determinations are done in duplicate.
(§5) Peptide cocktails were prepared by mixing together equal volumes of two peptide solutions each at 10 ug/ml. One cocktail used peptides BCH-87c and BCH-202c and the other cocktail was a mixture of BCH-87ck and BCH-202ck. Each cocktail was used to coat two series of plates as described earlier.
For orientation: In an ELISA, binding on a coated surface is turned into a signal by an enzyme label.

The next assay relates to HIV-2 antibodies. In words: ELISA with peptide-coated wells, HIV-2 seropositive plasma pool serially diluted. It is filed as binding, human. Conditions: Test 314. The method, then: as §1, §2, §3, §4, §5
In assay [2] the test system is HIV-1 antibodies. To be noted: cited from earlier work.

With `CC[C@H](C)[C@H](NC(=O)CNC(=O)[C@H](CC(C)C)NC(=O)[C@H](CC(C)C)NC(=O)[C@H](CCC(N)=O)NC(=O)[C@H](CCC(N)=O)NC(=O)[C@H](CC(=O)O)NC(=O)[C@H](CCCCN)NC(=O)[C@H](CC(C)C)NC(=O)[C@H](Cc1ccc(O)cc1)NC(=O)[C@H](CCCNC(=N)N)NC(=O)[C@H](CCC(=O)O)NC(=O)[C@@H](NC(=O)[C@H](C)NC(=O)[C@H](CC(C)C)NC(=O)[C@@H](NC(=O)[C@H](CCCCN)NC(=O)[C@@H](N)CCCCN)[C@@H](C)CC)C(C)C)C(=O)N[C@@H](Cc1c[nH]c2ccccc12)C(=O)NCC(=O)N[C@H]1CSSC[C@@H](C(=O)N[C@H](C(=O)N[C@H](C(=O)N[C@@H](C)C(=O)N[C@H](C(=O)N2CCC[C@H]2C(=O)N[C@@H](Cc2c[nH]c3ccccc23)C(=O)N[C@@H](CC(N)=O)C(=O)N[C@@H](C)C(=O)N[C@@H](CO)C(=O)O)C(C)C)[C@@H](C)O)[C@@H](C)O)NC(=O)[C@H]([C@@H](C)CC)NC(=O)[C@H](CC(C)C)NC(=O)[C@H](CCCCN)NC(=O)CNC(=O)[C@H](CO)NC1=O` [BCH-266] (H-KKILAVERYLKDQQLLGIWGCSGKLICTTAVPWNAS-OH; disulfide 21-27), the “O.D. 450 nm” value is more than 2.8 in the assay on HIV-1 antibodies [1] (Test 314, sample CAP-113 (HIV-1 positive plasma pool diluted 50-fold)); more than 2.8 in the assay on HIV-1 antibodies [1] (Test 314, sample CAP-114 (HIV-1 positive pool diluted 100-fold)); more than 2.8 with HIV-1 antibodies [1] (Test 314, sample CAP-115 (HIV-1 positive pool diluted 200-fold)); 2.376 in the assay on HIV-1 antibodies [1] (Test 314, sample CAP-116 (HIV-1 positive pool, serial dilution)); 1.569 in the assay on HIV-1 antibodies [1] (Test 314, sample CAP-117 (HIV-1 positive pool, serial dilution)); 0.934 in the assay on HIV-1 antibodies [1] (Test 314, sample CAP-118 (HIV-1 positive pool, serial dilution)). For the same compound, the “O.D. 450 nm” value is recorded as 0.567 with HIV-1 antibodies [1] (Test 314, sample CAP-119 (HIV-1 positive pool, serial dilution)); 0.376 in the assay on HIV-1 antibodies [1] (Test 314, sample CAP-120 (HIV-1 positive pool, serial dilution)); more than 2.8 with HIV-1 antibodies [1] (Test 350, sample CAP-10 (progressively higher dilutions)); more than 2.8 in the assay with HIV-1 antibodies [1] (Test 350, sample CAP-11 (progressively higher dilutions)); more than 2.8 with HIV-1 antibodies [1] (Test 350, sample CAP-12 (progressively higher dilutions)); 2.021 with HIV-1 antibodies [1] (Test 350, sample CAP-13 (progressively higher dilutions)). The “O.D. 450 nm” value is 1.248 in the assay with HIV-1 antibodies [1] (Test 350, sample CAP-14 (progressively higher dilutions)); 0.680 in the assay with HIV-1 antibodies [1] (Test 350, sample CAP-15 (progressively higher dilutions)); 0.366 with HIV-1 antibodies [1] (Test 350, sample CAP-16 (progressively higher dilutions)); 0.198 in the assay on HIV-1 antibodies [1] (Test 350, sample CAP-17 (progressively higher dilutions)); 0.116 in the assay on HIV-1 antibodies [1] (Test 350, sample CAP-18 (progressively higher dilutions)); 0.056 in the assay on HIV-1 antibodies [1] (Test 350, sample CAP-19 (progressively higher dilutions)). In addition, the “O.D. 450 nm” value stood at 0.028 in the assay on HIV antibodies (Test 314, sample BBI-1-162 (negative for HIV antibodies)); 0.138 with HIV antibodies (Test 314, sample BBI-1-169 (not described)); 0.030 with HIV antibodies (Test 314, sample BBI-1-172 (not described)); 0.069 in the assay with HIV antibodies (Test 314, sample NEIA-2*2 (negative for HIV antibodies)); 0.147 in the assay with HIV antibodies (Test 350, sample 2-87-L-139 (negative for HIV antibodies)); 0.020 in the assay on HIV antibodies (Test 350, sample 2-87-V-103 (negative for HIV antibodies)). The “O.D. 450 nm” value turned out to be 0.030 with HIV antibodies (Test 350, sample 89-D-307 (not described)); 0.023 in the assay on HIV antibodies (Test 350, sample NEIA-2*2 (negative for HIV antibodies)); 0.075 in the assay with HIV-2 antibodies (sample CAP-223 (HIV-2 positive pool diluted by 100)); 0.084 with HIV-2 antibodies (sample CAP-224 (HIV-2 positive pool, serial dilution)); 0.135 in the assay with HIV-2 antibodies (sample CAP-225 (HIV-2 positive pool, serial dilution)); 0.140 in the assay on HIV-2 antibodies (sample CAP-226 (HIV-2 positive pool, serial dilution)). Moreover, the “O.D. 450 nm” value in the assay with HIV-2 antibodies (sample CAP-227 (HIV-2 positive pool, serial dilution)) is recorded as 0.085; in the assay on HIV-2 antibodies (sample CAP-228 (HIV-2 positive pool, serial dilution)), 0.091; in the assay with HIV-2 antibodies (sample CAP-230 (HIV-2 positive pool, serial dilution)), 0.123.
As to SGKLIC, in the assay with HIV-1 antibodies [2] (Gnann et al. 1987, 22 HIV-1 positive sera tested), the “immunoreactivity with HIV-1 positive sera” value is recorded as “not immunoreactive”.
As for “SGKLICTTAVPWNAS [short synthetic peptide spanning residues 606 to 620 of gp41 (HIV-1)]”, in the assay on HIV-1 antibodies [2] (U.S. Ser. No. 120,027, 6 of 57 confirmed positive not detected), the sensitivity is given as 89%. Also, the specificity with HIV-1 antibodies [2] (U.S. Ser. No. 120,027) is given as 63/63.
